The values below come from patent publication US6218393A, “Anthranilic acid derivatives as multi drug resistance modulators” (priority 1997, dated 2001).

The test system of series [1] is AR 1.0 cells. In words: Potentiation index with doxorubicin titration. The series is classed as cell-based, mouse. As to conditions: for Potentiation Index at RMA concentration 10 nM: Table C2, RMA 10 nM; for Potentiation Index at RMA concentration 30 nM: Table C2, RMA 30 nM; for Potentiation Index at RMA concentration 300 nM: Table C2, RMA 300 nM; for Potentiation Index at RMA concentration 500 nM: Table C2, RMA 500 nM; for Potentiation Index at RMA concentration 100 nM: Table C2, RMA 100 nM. Summed up: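 Doxorubicin IC50 in AR 1.0 cells (MDR subline of EMT6 mouse mammary carcinoma) determined by sulphorhodamine B after 4-day culture across 0.263 nM-17.24 μM, with and without a fixed dose of test compound; their ratio gives the PI.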

Series [2] relates to AR 1.0 cells. In words: Potentiation of doxorubicin toxicity: proliferation assay (sulphorhodamine B). The series is classed as cell-based, mouse. The source says:
(a) Selected compounds of formula (I) were examined for their ability to potentiate the toxicity of doxorubicin in AR 1.0 cells.

Series [3] concerns AR 1.0 cells. In words: Drug accumulation assay: daunorubicin accumulation in AR 1.0 cells. In kind it is cell-based. As to conditions: Mus musculus, 100% = accumulation with verapamil 100 μM, 1 hr, 37° C. Summed up: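 Daunorubicin accumulation was measured in cells plated 48 h beforehand. These were AR 1.0 cells, an MDR-resistant derivative of mouse EMT6 mammary carcinoma, cultured at 37 °C in 5% CO2 in RPMI 1640 plus 10% foetal calf serum and 2 mM glutamine.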

[4] abbreviates: Mus musculus, 96 h, compound alone, four day proliferation, read-out: Compound Toxicity (IC50).
Setting [5] is: with fixed doxorubicin 0.34 μm, four days, 5760 min, read-out: Toxicity with Cytotoxic Agent (IC50).

Each structure is given as a SMILES string.

As for `COc1cc2c(cc1OC)CN(CCc1ccc(NC(=O)c3ccc(N)cc3NC(=O)c3cnc4ccccc4c3)cc1)CC2` [compound 9589, Quinoline-3-carboxylic acid (2-{4-[2-(6,7-dimethoxy-3,4-dihydro-1H-isoquinolin-2-yl)-ethyl]-phenylcarbamoyl}-5-amino-phenyl)-amide], in the series with AR 1.0 cells [1], the “Potentiation Index at RMA concentration 10 nM” value is on record as 1 and the “Potentiation Index at RMA concentration 30 nM” value was 1. The IC50 in the series on AR 1.0 cells [2] (setting [4]) was determined as 36800 nM. The compound further returned an IC50 in the series on AR 1.0 cells [3] of 1000 nM.

Take `COc1ccc(C(=O)Nc2ccccc2C(=O)Nc2ccc(CCN3CCc4cc(OC)c(OC)cc4C3)cc2)cc1` [compound 9518, 2-(4-Methoxy-benzoylamino)-N-{4-[2-(6,7-dimethoxy-3,4-dihydro-1H-isoquinolin-2-yl)-ethyl]-phenyl}-benzamide]: the “Potentiation Index at RMA concentration 300 nM” value with AR 1.0 cells [1] turned out to be 120. Also, in the series with AR 1.0 cells [1], the “Potentiation Index at RMA concentration 500 nM” value worked out at 240. For the same compound, the IC50 in the series on AR 1.0 cells [2] (setting [4]) stood at 1500 nM; in the series with AR 1.0 cells [2] (setting [5]), 19 nM; with AR 1.0 cells [3], 300 nM.

For the compound `COc1cc2c(cc1OC)CN(CCc1ccc(NC(=O)c3cc(OC)c(OC)cc3NC(=O)c3cnc4ccccc4n3)cc1)CC2` [compound 9573, Quinoxaline-2-carboxylic acid (2-{4-[2-(6,7-dimethoxy-3,4-dihydro-1H-isoquinolin-2-yl)-ethyl]-phenylcarbamoyl}-4,5-dimethoxy-phenyl)-amide], in the series with AR 1.0 cells [1], the “Potentiation Index at RMA concentration 10 nM” value was 83, the “Potentiation Index at RMA concentration 30 nM” value is recorded as 94 and the “Potentiation Index at RMA concentration 100 nM” value worked out at 100. Besides, the IC50 with AR 1.0 cells [2] (setting [4]) came to 4000 nM. Further, the IC50 in the series with AR 1.0 cells [3] came out at 9.5 nM.

Consider `COc1cc2c(cc1OC)CN(CCc1ccc(NC(=O)c3ccc(C(F)(F)F)cc3NC(=O)c3cnc4ccccc4n3)cc1)CC2` [compound 9561, Quinoxaline-2-carboxylic acid (2-{4-[2-(6,7-dimethoxy-3,4-dihydro-1H-isoquinolin-2-yl)-ethyl]-phenylcarbamoyl}-5-trifiuoromethyl-phenyl)-amide], for which, in the series on AR 1.0 cells [1], the “Potentiation Index at RMA concentration 10 nM” value came to 14, the “Potentiation Index at RMA concentration 30 nM” value is reported as 60 and the “Potentiation Index at RMA concentration 100 nM” value was determined as 100. The IC50 with AR 1.0 cells [2] (setting [4]) stood at 13000 nM. Further, the IC50 in the series with AR 1.0 cells [2] (setting [5]) was 10 nM. Further, the IC50 in the series with AR 1.0 cells [3] turned out to be 55 nM.

On to `COc1cccc(C(=O)Nc2ccccc2C(=O)Nc2ccc(CCN3CCc4cc(OC)c(OC)cc4C3)cc2)c1` [compound 9517, 2-(3-Methoxy-benzoclamino)-N-{4-[2-(6,7-dimethoxy-3,4-dihydro-1H-isoquinolin-2-yl)-ethyl]-phenyl}-benzamide], for which the “Potentiation Index at RMA concentration 300 nM” value in the series on AR 1.0 cells [1] is given as 40. In the series with AR 1.0 cells [1], the “Potentiation Index at RMA concentration 500 nM” value was 120. Besides, the IC50 in the series with AR 1.0 cells [2] (setting [4]) amounted to 2000 nM; in the series on AR 1.0 cells [2] (setting [5]), 50 nM; in the series on AR 1.0 cells [3], 400 nM.

As for `COc1cc2c(cc1OC)CN(CCc1ccc(NC(=O)c3ccccc3NC(=O)c3cccc(Cl)c3)cc1)CC2` [compound 9495, 2-(3-chloro-benzoylamino)-N-{4-[2-(617-dimethoxy-3,4-dihydro-1H-isoquinolin-2-yl)-ethyl]-phenyl}-benzamide], in the series with AR 1.0 cells [1], the “Potentiation Index at RMA concentration 30 nM” value is reported as 1.3, the “Potentiation Index at RMA concentration 100 nM” value was 15, the “Potentiation Index at RMA concentration 300 nM” value was found to be 261 and the “Potentiation Index at RMA concentration 500 nM” value turned out to be 567. In the series on AR 1.0 cells [2] (setting [4]), the IC50 is 4000 nM. For the same compound, the IC50 in the series on AR 1.0 cells [3] worked out at 500 nM.

With `COc1cc2c(cc1OC)CN(CCNC(=O)c1c(Cl)cccc1NC(=O)c1ccc(C(C)C)cc1)CC2` [compound 9405, 2-(4-Isopropyl-benzoylamino)-N-[2-(6,7-dimethoxy-3,4-dihydro-1H-isoquinolin-2-yl)-ethyl]-6-chioro-benzamide], the “Potentiation Index at RMA concentration 500 nM” value in the series with AR 1.0 cells [1] is reported as 8.6. Besides, the IC50 in the series on AR 1.0 cells [2] (setting [4]) was determined as 22000 nM; in the series on AR 1.0 cells [2] (setting [5]), 90 nM; in the series with AR 1.0 cells [3] it was 300 nM.

Turning to `COc1cc2c(cc1OC)CN(CCc1ccc(NC(=O)c3cc(F)ccc3NC(=O)c3cnc4ccccc4n3)cc1)CC2` [compound 9568, Quinoxaline-2-carboxylic acid. (2-{4-[2-(6,7-dimethoxy-3,4-dihydro-1H-isoquinolin-2-yl)-ethyl]-phenylcarbamoyl}-4-fluoro-phenyl)-amide], in the series on AR 1.0 cells [1], the “Potentiation Index at RMA concentration 10 nM” value is 23, the “Potentiation Index at RMA concentration 30 nM” value was determined as 60 and the “Potentiation Index at RMA concentration 100 nM” value is 88. The IC50 with AR 1.0 cells [2] (setting [4]) turned out to be 2800 nM. Further, the IC50 in the series with AR 1.0 cells [2] (setting [5]) came out at 3.4 nM. In addition, in the series on AR 1.0 cells [3], half-maximal inhibition (IC50) required 17 nM.

On to `COc1cc2c(cc1OC)CN(CCc1ccc(NC(=O)c3ccccc3NC(=O)c3cnc4ccccc4c3)cc1)CC2` [compound 9544, Quinoline-3-carboxylic acid (2-{4-[2-(6,7-dimethoxy-3,4-dihydro-1H-isoquinolin-2-yl)ethyl]-phenylcarbamoyl}-phenyl)-amide], for which, in the series with AR 1.0 cells [1], the “Potentiation Index at RMA concentration 10 nM” value was determined as 15, the “Potentiation Index at RMA concentration 30 nM” value was 67, the “Potentiation Index at RMA concentration 100 nM” value was 120 and the “Potentiation Index at RMA concentration 300 nM” value was 150. For the same compound, the IC50 in the series with AR 1.0 cells [2] (setting [4]) stood at 1900 nM. For the same compound, the IC50 in the series on AR 1.0 cells [2] (setting [5]) came to 7.7 nM. For the same compound, in the series with AR 1.0 cells [3], the IC50 amounted to 50 nM.

Take `COc1cc2c(cc1OC)CN(CCc1ccc(NC(=O)c3cc(F)ccc3NC(=O)c3cnc4ccccc4c3)cc1)CC2` [compound 9574, Quinoline-3-carboxylic acid (2-{4-[2-(6,7-dimethoxy-3,4-dihydro-1H-isoquinolin-2-yl)-ethyl]-phenylcarbamoyl}-4-fluoro-phenyl)-amide]: in the series on AR 1.0 cells [1], the “Potentiation Index at RMA concentration 10 nM” value stood at 16, the “Potentiation Index at RMA concentration 30 nM” value was determined as 60 and the “Potentiation Index at RMA concentration 100 nM” value was determined as 94. Further, the IC50 with AR 1.0 cells [2] (setting [4]) came out at 320 nM. The IC50 in the series on AR 1.0 cells [3] worked out at 19 nM.

In the case of `COc1cc2c(cc1OC)CN(Cc1ccc(NC(=O)c3ccccc3NC(=O)c3cnc4ccccc4c3)cc1)CC2` [compound 9585, Quinoline-3-carboxylic acid {2-[4-(6,7-dimethoxy-3,4-dihydro-1H-isoquinolin-2-ylmethyl)-phenylcarbamoyl]-phenyl}-amide], in the series on AR 1.0 cells [1], the “Potentiation Index at RMA concentration 10 nM” value came out at 1.3 and the “Potentiation Index at RMA concentration 30 nM” value is on record as 7.2. In the series with AR 1.0 cells [2] (setting [4]), the IC50 was found to be 9200 nM. For the same compound, the IC50 in the series with AR 1.0 cells [3] is 40 nM.

On to `COc1cc2c(cc1OC)CN(CCNC(=O)c1cc(Cl)ccc1NC(=O)c1ccc(C(C)C)cc1)CC2` [compound 9354, 2-(4-Isopropyl-benzoylamino)-N-[2-(6,7-dimethoxy-3,4-dihydro-1H-isoquinolin-2-yl)-ethyl]-5-chioro-benzamide], for which the “Potentiation Index at RMA concentration 500 nM” value with AR 1.0 cells [1] came to 20. Besides, the IC50 is 8000 nM in the series with AR 1.0 cells [2] (setting [4]), 150 nM in the series on AR 1.0 cells [2] (setting [5]) and 600 nM in the series with AR 1.0 cells [3].

With `COc1cc2c(cc1OC)CN(CCc1ccc(NC(=O)c3ccc(NO)cc3NC(=O)c3cnc4ccccc4n3)cc1)CC2` [compound 9542, Quinoxaline-2-carboxylic acid (2-{4-[2-(6,7-dimethoxy-3,4-dihydro-1H-isoquinolin-2-yl)-ethyl]-phenylcarbamoyl}-5-hydroxyamino-phenyl)-amide], the “Potentiation Index at RMA concentration 100 nM” value in the series on AR 1.0 cells [1] is listed as 128. Moreover, in the series with AR 1.0 cells [1], the “Potentiation Index at RMA concentration 300 nM” value was 160. Also, the IC50 in the series on AR 1.0 cells [2] (setting [4]) worked out at 1900 nM; with AR 1.0 cells [2] (setting [5]), 14 nM; in the series with AR 1.0 cells [3], 130 nM.

With `COc1cc2c(cc1OC)CN(CCNC(=O)c1ccccc1NC(=O)c1ccc(C3CCCCC3)cc1)CC2` [compound 9331, 2-(4-Cyclohexyl-benzoylamino)-N-[2-(6,7-dimethoxy-3,4-dihydro-1H-isoquinolin-2-yl)-ethyl]-benzamide], the “Potentiation Index at RMA concentration 300 nM” value with AR 1.0 cells [1] worked out at 40. In the series on AR 1.0 cells [1], the “Potentiation Index at RMA concentration 500 nM” value worked out at 120. Further, the figures for the IC50 with AR 1.0 cells [2] (setting [4]), in the series on AR 1.0 cells [2] (setting [5]) and with AR 1.0 cells [3] were 7000 nM, 40 nM and 1300 nM, respectively.

As to `O=C(Nc1ccccc1C(=O)Nc1ccc(CCN2CCc3ccccc3C2)cc1)c1cnc2ccccc2c1` [compound 9577, Quinoline-3-carboxylic acid (2-{4-[2-(3,4-dihydro-1H-isoquinolin-2-yl)-ethyl]-phenylcarbamoyl}-phenyl)-amide], in the series on AR 1.0 cells [1], the “Potentiation Index at RMA concentration 10 nM” value is listed as 2.2, the “Potentiation Index at RMA concentration 30 nM” value is 18 and the “Potentiation Index at RMA concentration 100 nM” value worked out at 112. For the same compound, in the series with AR 1.0 cells [2] (setting [4]), the IC50 was found to be 7700 nM. Moreover, the IC50 in the series with AR 1.0 cells [3] was 320 nM.
